This is an account of results in article PMC8053989 (Proceedings of the National Academy of Sciences of the …, 2021).

Molecules are shown by their SMILES. Read-outs that look alike come from different tables or passages of the source.

The subject of data set [1] is SARS-CoV-2 replicon. As to the kind of experiment: microbe, parasite or virus in culture. The following applies: Huh-7.5 cells. It counts as cell-based.
Data set [2] relates to SARS-CoV-2 replicon. Description: microbe, parasite or virus in culture. It counts as cell-based. The following applies: Calu-1 cells, compound alone.
Data set [3] relates to SARS-CoV-2 replicon. Description: microbe, parasite or virus in culture. It counts as cell-based.
Data set [4] deals with SARS-CoV-2 replicon. Description: microbe, parasite or virus in culture. Type of data set: cell-based. Particulars: for effect of p-gp inhibitors on potency: in the presence of CP-100356 or elacridar.
Data set [5] has as its system SARS-CoV-2 replicon. As to the kind of experiment: microbe, parasite or virus in culture. Type of data set: cell-based. The following applies: A549 cells, compound alone.
The subject of data set [6] is SARS-CoV-2 replicon. Type of data set: cell-based. The following applies: concentrations up to 2 µM.
Data set [7] relates to 293T cells. Description: Cytotoxicity assay (CellTiter-Glo) in replicon-transfected cells. Particulars: range of concentrations tested. (In general: In ATP-based viability assays light output follows the ATP content of the culture.)
Data set [8] deals with wild-type (wt) SARS-CoV-2. Also on record: method as in doi:10.1101/2020.08.28.272880. Particulars: ACE2 stably transfected A549 cells; read-out: EC50 against wild-type SARS-CoV-2 infection; cited from earlier work.
The mark [9] stands for this setting: Severe acute respiratory syndrome coronavirus 2, Huh7.5.
The mark [10] stands for this setting: Severe acute respiratory syndrome coronavirus 2.
Setting [11] is: Severe acute respiratory syndrome coronavirus 2, HEK-293T, 30 h, read-out: EC50.
Setting [12] is: Severe acute respiratory syndrome coronavirus 2, Vero cells, compound alone.

Broadly, the EC50 is the concentration at which the effect is half-maximal. As for `Cc1cccc(/C=N/Nc2cc(N3CCOCC3)nc(OCCc3ccccn3)n2)c1` [Apilimod], the EC50 in data set [1] (setting [9]) and in data set [2] (setting [10]) was above 42000 nM in each case.
As for `CN(C)C(=O)COC(=O)Cc1ccc(OC(=O)c2ccc(NC(=N)N)cc2)cc1` [Camostat], the EC50 in data set [3] (setting [11]), in data set [4] (setting [12]), in data set [2] (setting [10]) and in data set [5] (setting [10]) was above 42000 nM each time.
On to `COc1cc2c(cc1OC)CN(CCc1ccc(NC(=O)c3cccc4c(=O)c5cccc(OC)c5[nH]c34)cc1)CC2` [Elacridar], for which the EC50 in data set [4] (setting [12]) was above 4670 nM; in data set [2] (setting [10]) it was above 8400 nM; in data set [5] (setting [10]), above 4670 nM. The “antiviral activity when tested alone” value in data set [6] is reported as “No antiviral activities were observed”.
`CC(C)C[C@H](NC(=O)OCc1ccccc1)C(=O)N[C@H](C=O)C[C@@H]1CCNC1=O` [GC373]: the EC50 was 20.3 ± 5.3 nM in data set [3] (read-out: EC50); 309 ± 43 nM in data set [4] (Vero cells, compound alone); 30.1 ± 5.8 nM in data set [2]; 539 ± 69 nM in data set [5]. Besides, in data set [4] (Vero cells), the “effect of p-gp inhibitors on potency” value was “slight increase of the activities”.
As for `CC(C)C[C@H](NC(=O)OCc1ccccc1)C(=O)N[C@@H](CC1CCNC1=O)C(O)S(=O)(=O)O` (stereo partly drawn) [GC376], the EC50 in data set [3] (read-out: EC50) came to 20.8 ± 5.4 nM; in data set [3] (read-out: potency (EC50) in inhibiting SARS-CoV-2 replicon replication, percent GFP signal), 22 nM; in data set [3] (read-out: potency (EC50) in inhibiting SARS-CoV-2 replicon replication, percent luciferase activity), 29.2 nM; in data set [4] (Vero cells, compound alone), 237 ± 74 nM; in data set [1], 19.4 ± 4.9 nM; in data set [2], 19.8 ± 2 nM. Further, the half-maximal effective concentration (EC50) in data set [5] stood at 570 ± 182 nM.
As for `CC(C)C[C@H](NC(=O)OCc1ccccc1)C(=O)N[C@@H](C[C@@H]1CCNC1=O)C(O)S(=O)(=O)[O-].[Na+]` (stereo partly drawn) [GC376], the “effect of p-gp inhibitors on potency” value in data set [4] (Vero cells) is reported as “slight increase of the activities”. The cytotoxicity entry in data set [7] is “No cytotoxicity was detected”.
Regarding `CCC(CC)COC(=O)[C@H](C)N[P@](=O)(OC[C@H]1O[C@@](C#N)(c2ccc3c(N)ncnn23)[C@H](O)[C@@H]1O)Oc1ccccc1` [GS-5734], the EC50 in data set [3] (setting [11]) is 15.6 ± 5.1 nM; in data set [4] (setting [12]), 2240 nM; in data set [1] (setting [9]), 18.9 nM; in data set [2] (setting [10]), 31.5 ± 23 nM; in data set [5] (setting [10]), 184 nM; in data set [8], 442 nM.
On to `N#C[C@@]1(c2ccc3c(N)ncnn23)O[C@H](CO)[C@@H](O)[C@H]1O` [GS-441524], for which the EC50 in data set [3] (setting [11]) amounted to 603 ± 131 nM; in data set [3] (Severe acute respiratory syndrome coronavirus 2, HEK-293T, 30 h, read-out: potency (EC50) in inhibiting SARS-CoV-2 replicon replication, percent GFP signal), 645 nM; in data set [3] (Severe acute respiratory syndrome coronavirus 2, HEK-293T, 30 h, read-out: potency (EC50) in inhibiting SARS-CoV-2 replicon replication, percent luciferase activity), 503 nM; in data set [4] (setting [12]), 302 ± 20 nM; in data set [1] (setting [9]), 1030 nM; in data set [2] (setting [10]) it was 1330 nM. Further, in data set [5] (setting [10]), the EC50 came to 1470 nM. In addition, in data set [7], the cytotoxicity result is reported as “No cytotoxicity was detected”.
In the case of `CC(C)(C)NC(=O)N[C@H](C(=O)N1C[C@H]2[C@@H]([C@H]1C(=O)NC(CC1CCC1)C(=O)C(N)=O)C2(C)C)C(C)(C)C` (stereo partly drawn) [MK-3034], the EC50 in data set [3] (setting [11]) came to 3550 nM; in data set [4] (setting [12]), 16600 nM; in data set [2] (setting [10]), 4790 nM; in data set [5] (setting [10]) it was 19900 nM. Moreover, the “effect of p-gp inhibitors on potency” value in data set [4] (Vero cells) is recorded as “slight increase of the activities”.
Turning to `N=C(N)c1ccc2cc(OC(=O)c3ccc(N=C(N)N)cc3)ccc2c1` [Nafamostat], the half-maximal effective concentration (EC50) is above 42000 nM in data set [3] (setting [11]); above 42000 nM in data set [4] (Severe acute respiratory syndrome coronavirus 2, Vero C1008, Vero E6 cells (so in the source)); above 42000 nM in data set [2] (setting [10]); above 42000 nM in data set [5] (setting [10]).
For the compound `COc1cccc2[nH]c(C(=O)N[C@@H](CC(C)C)C(=O)N[C@@H](C[C@@H]3CCNC3=O)C(=O)CO)cc12` [PF-00835231], the EC50 turned out to be 75.2 ± 19.1 nM in data set [3] (read-out: EC50); 2190 nM in data set [4] (Vero cells, compound alone); 175 ± 56 nM in data set [1]; 24.7 ± 3.8 nM in data set [2]; 76.3 ± 16.2 nM in data set [5]. For the same compound, in data set [4] (Vero cells), the “effect of p-gp inhibitors on potency” value is listed as “dramatically increased the potency”.
`CC(C)C[C@H](NC(=O)c1cc2ccccc2o1)C(=O)N[C@H]1CC[C@@H](C)N(S(=O)(=O)c2ccccn2)CC1=O` [Relacatib]: the EC50 in data set [3] (setting [11]), in data set [4] (setting [12]), in data set [2] (setting [10]) and in data set [5] (setting [10]) was above 42000 nM throughout.
